This passage reports mutagenic call results from PubChem BioAssay AID1259407 (Chemical Carcinogenesis Research Information System (CCRIS), 2018).

Each structure is given as a SMILES string. Calls of active or inactive are those of the source. The rule behind the calls is not given here.

The test system of the series is CCRIS mutagenicity, Ames/micronucleus/aberration tests. The series can be described thus: CCRIS mutagenicity studies. The note with it: Test System: AMES SALMONELLA TYPHIMURIUM
Setting [1] is: Strain/Indicator: TA98, Metabolic Activation: NONE, Method: STANDARD PLATE.
The mark [2] stands for this setting: Strain/Indicator: TA98, Metabolic Activation: RAT, LIVER, S-9, AROCLOR 1254, Method: STANDARD PLATE.
The mark [3] stands for this setting: Strain/Indicator: TA98, Metabolic Activation: HAMSTER, LIVER, S-9, AROCLOR 1254 (10%), Method: PREINCUBATION
[4] abbreviates: Strain/Indicator: TA98, Metabolic Activation: NONE, Method: PREINCUBATION
Setting [5] is: Strain/Indicator: TA98, Metabolic Activation: RAT, LIVER, S-9, AROCLOR 1254 (10%), Method: PREINCUBATION
Setting [6] is: Strain/Indicator: TA100, Metabolic Activation: HAMSTER, LIVER, S-9, AROCLOR 1254 (10%), Method: PREINCUBATION
The mark [7] stands for this setting: Strain/Indicator: TA100, Metabolic Activation: NONE, Method: PREINCUBATION
The mark [8] stands for this setting: Strain/Indicator: TA100, Metabolic Activation: RAT, LIVER, S-9, AROCLOR 1254 (10%), Method: PREINCUBATION
[9] abbreviates: Strain/Indicator: TA1535, Metabolic Activation: HAMSTER, LIVER, S-9, AROCLOR 1254 (10%), Method: PREINCUBATION
Setting [10] is: Strain/Indicator: TA1535, Metabolic Activation: NONE, Method: PREINCUBATION
Setting [11] is: Strain/Indicator: TA1535, Metabolic Activation: RAT, LIVER, S-9, AROCLOR 1254 (10%), Method: PREINCUBATION
Where [12] appears, read: Strain/Indicator: TA1537, Metabolic Activation: NONE, Method: PREINCUBATION
[13] abbreviates: Strain/Indicator: TA100, Metabolic Activation: NONE, Method: STANDARD PLATE.

`CCC1(C(C)O)OC1(C(N)=O)C(=O)OC` (configuration not stated): the mutagenic call reads like this: (Strain/Indicator: TA98, Metabolic Activation: NONE, Method: DISK ASSAY) “inactive; negative”; under setting [1], “inactive; negative”; (Strain/Indicator: TA98, Metabolic Activation: RAT, LIVER, S-9, AROCLOR 1254, Method: DISK ASSAY) “inactive; negative”; under setting [2], “inactive; negative”.
For `O=C(Nc1ccc(Cl)cc1)Nc1ccc(Cl)c(Cl)c1`, the mutagenic call is “inactive; negative” under setting [3]; “inactive; negative” under setting [4]; “inactive; negative” under setting [5]; “inactive; negative” under setting [6]; “inactive; negative” under setting [7]; “inactive; negative” under setting [8]. In addition, the mutagenic call was “inactive; negative” under setting [9]; “inactive; negative” under setting [10]; “inactive; negative” under setting [11]; “inactive; negative” (Strain/Indicator: TA1537, Metabolic Activation: HAMSTER, LIVER, S-9, AROCLOR 1254 (10%), Method: PREINCUBATION); “inactive; negative” under setting [12]; “inactive; negative” (Strain/Indicator: TA1537, Metabolic Activation: RAT, LIVER, S-9, AROCLOR 1254 (10%), Method: PREINCUBATION).
As to `CCCCCCC=O`, the mutagenic call (Strain/Indicator: TA97, Metabolic Activation: HAMSTER, LIVER, S-9, AROCLOR 1254 (10%), Method: PREINCUBATION) is “inactive; negative”; the mutagenic call (Strain/Indicator: TA97, Metabolic Activation: HAMSTER, LIVER, S-9, AROCLOR 1254 (30%), Method: PREINCUBATION) is “inactive; negative”; the mutagenic call (Strain/Indicator: TA97, Metabolic Activation: NONE, Method: PREINCUBATION) is “inactive; negative”; the mutagenic call (Strain/Indicator: TA97, Metabolic Activation: RAT, LIVER, S-9, AROCLOR 1254 (10%), Method: PREINCUBATION) is “inactive; negative”; the mutagenic call (Strain/Indicator: TA97, Metabolic Activation: RAT, LIVER, S-9, AROCLOR 1254 (30%), Method: PREINCUBATION) is “inactive; negative”; the mutagenic call under setting [3] was “inactive; negative”. The mutagenic call by setting is: (Strain/Indicator: TA98, Metabolic Activation: HAMSTER, LIVER, S-9, AROCLOR 1254 (30%), Method: PREINCUBATION) “inactive; negative”; under setting [4], “inactive; negative”; under setting [5], “inactive; negative”; (Strain/Indicator: TA98, Metabolic Activation: RAT, LIVER, S-9, AROCLOR 1254 (30%), Method: PREINCUBATION) “inactive; negative”; under setting [6], “inactive; negative”; (Strain/Indicator: TA100, Metabolic Activation: HAMSTER, LIVER, S-9, AROCLOR 1254 (30%), Method: PREINCUBATION) “inactive; negative”. Also, the mutagenic call was “inactive; negative” under setting [7]; “inactive; negative” under setting [8]; “inactive; negative” (Strain/Indicator: TA100, Metabolic Activation: RAT, LIVER, S-9, AROCLOR 1254 (30%), Method: PREINCUBATION); “inactive; negative” under setting [9]; “inactive; negative” (Strain/Indicator: TA1535, Metabolic Activation: HAMSTER, LIVER, S-9, AROCLOR 1254 (30%), Method: PREINCUBATION); “inactive; negative” under setting [10]. Also, the mutagenic call reads like this: under setting [11], “inactive; negative”; (Strain/Indicator: TA1535, Metabolic Activation: RAT, LIVER, S-9, AROCLOR 1254 (30%), Method: PREINCUBATION) “inactive; negative”; (Strain/Indicator: TA1537, Metabolic Activation: HAMSTER, LIVER, S-9, AROCLOR 1254 (30%), Method: PREINCUBATION) “inactive; negative”; under setting [12], “inactive; negative”; (Strain/Indicator: TA1537, Metabolic Activation: RAT, LIVER, S-9, AROCLOR 1254 (30%), Method: PREINCUBATION) “inactive; negative”.
Consider `COc1cc(O)c2c(=O)c(O)c(-c3ccc(O)c(O)c3)oc2c1`, for which the mutagenic call is, setting by setting: (Strain/Indicator: TA97, Metabolic Activation: NONE, Method: STANDARD PLATE) “inactive; negative”; (Strain/Indicator: TA97, Metabolic Activation: RAT, LIVER, S-9, AROCLOR 1254, Method: STANDARD PLATE) “active; positive”; under setting [1], “inactive; negative”; under setting [2], “active; positive”; under setting [13], “inactive; negative”; (Strain/Indicator: TA100, Metabolic Activation: RAT, LIVER, S-9, AROCLOR 1254, Method: STANDARD PLATE) “inactive; negative”. In addition, the mutagenic call reads like this: (Strain/Indicator: TA102, Metabolic Activation: NONE, Method: STANDARD PLATE) “inactive; negative”; (Strain/Indicator: TA102, Metabolic Activation: RAT, LIVER, S-9, AROCLOR 1254, Method: STANDARD PLATE) “inactive; negative”; (Strain/Indicator: TA1535, Metabolic Activation: NONE, Method: STANDARD PLATE) “inactive; negative”; (Strain/Indicator: TA1535, Metabolic Activation: RAT, LIVER, S-9, AROCLOR 1254, Method: STANDARD PLATE) “inactive; negative”; (Strain/Indicator: TA1538, Metabolic Activation: NONE, Method: STANDARD PLATE) “inactive; negative”; (Strain/Indicator: TA1538, Metabolic Activation: RAT, LIVER, S-9, AROCLOR 1254, Method: STANDARD PLATE) “inactive; negative”.
For the molecule `CCc1ccc(NC(=O)c2csc([N+](=O)[O-])c2)cc1`, the mutagenic call is “active; positive” under setting [1] and “active; positive” under setting [13].
Consider `N[C@@H](CCC(=O)N[C@@H](CS/C(Cl)=C\Cl)C(=O)NCC(=O)O)C(=O)O`, for which the mutagenic call runs as follows: (Strain/Indicator: TA2638, Metabolic Activation: NONE, Method: PREINCUBATION) “active; positive”; (Strain/Indicator: TA2638, Metabolic Activation: RAT, KIDNEY, CYTOSOL, Method: PREINCUBATION) “active; positive”; (Strain/Indicator: TA2638, Metabolic Activation: RAT, KIDNEY, MICROSOMES, Method: PREINCUBATION) “active; positive”; (Strain/Indicator: TA2638, Metabolic Activation: RAT, KIDNEY, MITOCHONDRIA, Method: PREINCUBATION) “active; positive”.
